This note sets out measurements from US11744791B2, “Cosmetic composition comprising amide-based compound” (Neopharm Co., Ltd., priority 2020, dated 2023).

In one assay the test system is PPAR-γ. Put plainly: Analysis of expression level of PPAR-γ (Western blot) in sebocytes. The format is cell-based. Particulars: human sebocytes, 24 hours. As to the method:
An expression level of PPAR-γ was determined through Western blot in Examples and Comparative Examples of the present invention.
Specifically, human sebocytes were cultured in a 12-well plate containing a Dulbecco's modified eagle medium (DMEM)/F12 (1:1) medium supplemented with 10% fetal bovine serum (FBS) to attach 1.5×10^5 (1 mL/well) sebocytes to the 12-well plate. The sebocytes were cultured for 24 hours, and the medium was replaced with a serum-free medium. Then, an experimental group in which the cells were treated with each of the compounds of Examples or Comparative Examples was cultured for 24 hours, and the cells were then recovered. Thereafter, each of these samples was subjected to Western blot to analyze an expression level of PPAR-γ in the sebocytes. A sample (100 μM) of Example 1 or 2 or Comparative Example 1 or 2 including the amide-based compound having a structure shown in the following Table 1 was used as the sample. Also, a sample treated with 10 μM IGF-1 was used as the positive control, and the control in which the cells were not treated with the sample was used as the comparison group.

The subject of the next assay is CD44. Briefly: Analysis of expression level of CD44 in adipose tissue-derived mesenchymal stem cells. In kind it is cell-based, human. Particulars: hADSCs, sample 100 μM. The protocol: For flow cytometric analysis of the adipose tissue-derived stem cells of Examples and Comparative Examples of the present invention, an expression level of CD44 was measured. For this purpose, each of the samples was added to each medium. A sample (100 μM) of Example 1 or 2 or Comparative Example 1 or 2 including the amide-based compound having a structure shown in the following Table 1. Also, a sample treated with 10 μM IGF-1 was used as the positive control, and the control in which the cells were not treated with the sample was used as the comparison group.
Specifically, RNA was isolated from human adipose tissue-derived mesenchymal stem cells (hADSCs) according to the manufacturer's instructions using an easy BLUE reagent. The isolated RNA was dissolved in distilled water supplemented with diethyl procarbonate (DEPC), and the absorbance was measured at 260 nm, and a concentration of the RNA was quantified, and then used for experiments. Then, an expression level of CD44 in the adipose tissue-derived stem cells was analyzed.

In a further assay the test system is filaggrin. Put plainly: Expression level of filaggrin gene in keratinocytes (Real-Time PCR). In kind it is cell-based, human. The following applies: sample 100 μM, 24 hours. As to the method: (§1) To determine effects of the samples of Examples and Comparative Examples of the present invention on promotion of expression of moisturizing factors, expression levels of filaggrin and loricrin were measured.
(§2) Specifically, keratinocytes commercially available from Invitrogen Corp. were cultured for a predetermined period of time in an EpiLife medium (keratinocyte growth media:keratinocyte growth medium) supplemented with a human keratinocyte growth supplement (HKGS), subcultured three times, and then used. The keratinocytes which were subcultured 3 times were cultured to a confluence of 70 to 80% in a 6-well plate, and each of the wells was separately treated with each of the samples. Thereafter, the cells were cultured for a total of 24 hours. RNA of the keratinocytes was extracted from the cultured cells using an easy BLUE reagent, and cDNA was synthesized using a SuperScript reverse transcriptase III kit. A 7500 Fast Real-Time PCR for genetic comparison was performed using a 2×TaqMan universal PCR mixture (10 μL), a 20×TaqMan expression assay mix (1 μL), cDNA (50 ng), and primers (Filaggrin: Hs00856927_g1*, Loricrin: Hs01894962_s1*). Also, a sample treated with 10 μM IGF-1 was used as the positive control, and the control in which the cells were not treated with the sample was used as the comparison group.
(In general: In qPCR the cycle at which signal appears reflects the starting amount.)

The subject of another assay is loricrin. Put plainly: Expression level of loricrin gene in keratinocytes (Real-Time PCR). In kind it is cell-based, human. Particulars: sample 100 μM, 24 hours. As to the method: as §1, §2

For `CCCCCCCC(=O)NCCO` [Comparative Example 2, N-(2-hydroxyethyl)octanamide, reference compound], the “inhibited the expression of PPAR-γ, compared to the control” value in the assay with PPAR-γ (sample 100 μM) is 75.5%. Further, the “expression level of CD44 (in words), compared to the control” value with CD44 was “lower expression level of CD44”. As to `CCCCCC(=O)NCC(O)CO` (stereo not shown) [Example 2, N-(2,3-dihydroxypropyl)hexanamide], the “effect of improving the expression of PPAR-γ” value in the assay on PPAR-γ (sample 100 μM) came to 140.8%. On to `CCCCCCCCCC(=O)NC(CO)CO` [Example 1, N-(2-hydroxy-1-(hydroxymethyl)ethyl)decanamide], for which the “effect of improving the expression of PPAR-γ” value in the assay with PPAR-γ (sample 100 μM) is recorded as 128.4%. Further, the “enhanced expression level of filaggrin, compared to the control” value with filaggrin is given as no less than 300%. For the same molecule, the “enhanced expression level of loricrin, compared to the control” value in the assay on loricrin is no less than 400%. Turning to “IGF-1: positive control, sample treated with 10 μM IGF-1 [reference compound]”, in the assay with PPAR-γ (IGF-1 10 μM, samples 100 μM), the “expression of PPAR-γ (in words)” value is given as “promoted”.
